Data from patent US4321265A, “7α-Methoxycephalosporins” (Toyama Chemical Co., Ltd., priority 1977, dated 1982).
In brackets after ≈: the same amount, converted by molar mass.

How the values were obtained:
Experiment in all cases: Minimum inhibitory concentration (MIC), Heart Infusion agar
Type in all cases: cell-based
Klebsiella spp. Y-72 = conditions: SPP.Y72; Klebsiella spp. Y-72; 10^6 cells/ml; 20 hours, 37° C.; read-out: minimum inhibitory concentration (MIC)
Protocol: (§1) Antibacterial activities of the representative compounds (Ib) of the 7α-methoxycephalosporins according to this invention are shown in Table 1. [drawing 20]
(§2) The figures given in Table 1 represent the minimum inhibitory concentration (MIC in mcg/ml) of each compound, which was determined according to the method described in "Chemotherapy (Society of Chemotherapy, Japan), Vol. 16, 98-99 (1968)": A culture obtained by cultivating the test bacterium in a Heart Infusion broth (Eiken Kagaku Co.) was inoculated into a Heart Infusion agar medium (Eiken Kagaku Co.). After 20 hours of the incubation at 37° C., the growth of the bacterium was inspected to determine the minimum inhibitory concentration (MIC in mcg/ml). The inoculation rate of the bacterium was 10^4 cells/plate (10^6 cells/ml).
(§3) (1) Minimum inhibitory concentration (MIC in mcg/ml).

Citrobacter N-7 = conditions: N7; Citrobacter N-7; 10^6 cells/ml; 20 hours, 37° C.; read-out: minimum inhibitory concentration (MIC)
Protocol: as §1, §2, §3

E. coli NIHJ = conditions: Escherichia coli; E. coli NIHJ; 10^6 cells/ml; 20 hours, 37° C.; read-out: minimum inhibitory concentration (MIC)
Protocol: as §1, §2, §3

Ser. marcescens IID620 = conditions: Serratia marcescens; Ser. marcescens IID620; 10^6 cells/ml; 20 hours, 37° C.; read-out: minimum inhibitory concentration (MIC)
Protocol: as §1, §2, §3

Prot. vulgaris GN-76 = conditions: Proteus vulgaris, GN76; Prot. vulgaris GN-76; 10^6 cells/ml; 20 hours, 37° C.; read-out: minimum inhibitory concentration (MIC)
Protocol: as §1, §2, §3

K. pneumoniae Y-50 = conditions: Klebsiella pneumoniae, Y50; K. pneumoniae Y-50; 10^6 cells/ml; 20 hours, 37° C.; read-out: minimum inhibitory concentration (MIC)
Protocol: as §1, §2, §3

Ps. aeruginosa IFO-3445 = conditions: Pseudomonas aeruginosa, IFO3445; Ps. aeruginosa IFO-3445; 10^6 cells/ml; 20 hours, 37° C.; read-out: minimum inhibitory concentration (MIC)
Protocol: as §1, §2, §3

[1] = system: Acinetobacter caloaceticus A-6; conditions: A6; Acinetobacter caloaceticus A-6; 10^6 cells/ml; 20 hours, 37° C.; read-out: minimum inhibitory concentration (MIC)
Protocol: as §1, §2, §3

[2] = system: S. aureus F-19 (Penicillinase-producing bacterium); conditions: Staphylococcus aureus; S. aureus F-19; 10^6 cells/ml; 20 hours, 37° C.; read-out: minimum inhibitory concentration (MIC)
Protocol: as §1, §2, §3

Ps. aeruginosa S-68 = conditions: Pseudomonas aeruginosa, S68; Ps. aeruginosa S-68; 10^6 cells/ml; 20 hours, 37° C.; read-out: minimum inhibitory concentration (MIC)
Protocol: as §1, §2, §3

Ent. cloacae IID977 = conditions: Enterobacter cloacae; Ent. cloacae IID977; 10^6 cells/ml; 20 hours, 37° C.; read-out: minimum inhibitory concentration (MIC)
Protocol: as §1, §2, §3

Ser. marcescens W-8 = conditions: Serratia marcescens, W8; Ser. marcescens W-8; 10^6 cells/ml; 20 hours, 37° C.; read-out: minimum inhibitory concentration (MIC)
Protocol: as §1, §2, §3

Ser. marcescens W-35 = conditions: Serratia marcescens, W35, 20 h, Ser. marcescens W-35; 10^6 cells/ml; 20 hours, 37° C. (Table 1); read-out: minimum inhibitory concentration (MIC)
Protocol: as §1
as §2, with “The inoculation rate of the bacterium was 10^4 cells/plate (10^6 cells/ml).” left out
as §3

[3] = system: C. freundii GN-346 (Cephalosporinase-producing bacterium); conditions: Citrobacter freundii, GN346; C. freundii GN-346; 10^6 cells/ml; 20 hours, 37° C.; read-out: minimum inhibitory concentration (MIC)
Protocol: as §1, §2, §3

| SMILES | MIC (Klebsiella spp. Y-72) | MIC (Citrobacter N-7) | MIC (E. coli NIHJ) | MIC (Ser. marcescens IID620) | MIC (Prot. vulgaris GN-76) | MIC (K. pneumoniae Y-50) | MIC (Ps. aeruginosa IFO-3445) | MIC [1] | MIC [2] | MIC (Ps. aeruginosa S-68) | MIC (Ent. cloacae IID977) | MIC (Ser. marcescens W-8) | MIC (Ser. marcescens W-35) | MIC [3] |
| --- | --- | --- | --- | --- | --- | --- | --- | --- | --- | --- | --- | --- | --- | --- |
| CCN1CCN(C(=O)NC(C(=O)N[C@]2(OC)C(=O)N3C(C(=O)O)=C(CSc4nnnn4CC(N)=O)CS[C@@H]32)c2cccs2)C(=O)C1=O (stereo partly drawn) | 1.56 µg/mL (≈ 2.2 µM) | 3.13 µg/mL (≈ 4.42 µM) | ≤ 0.1 µg/mL | 0.2 µg/mL (≈ 0.282 µM) | 0.78 µg/mL (≈ 1.1 µM) | 0.39 µg/mL (≈ 0.55 µM) | 12.5 µg/mL (≈ 17.6 µM) | 6.25 µg/mL (≈ 8.82 µM) | 3.13 µg/mL (≈ 4.42 µM) | 12.5 µg/mL (≈ 17.6 µM) | 12.5 µg/mL (≈ 17.6 µM) | 25 µg/mL (≈ 35.3 µM) | 12.5 µg/mL (≈ 17.6 µM) | – |
| CCN1CCN(C(=O)NC(C(=O)N[C@]2(OC)C(=O)N3C(C(=O)O)=C(CSc4nnn(CCN(C)C)n4)CS[C@@H]32)c2cccs2)C(=O)C1=O (stereo partly drawn) | – | 3.13 µg/mL (≈ 4.33 µM) | ≤ 0.1 µg/mL | 0.2 µg/mL (≈ 0.277 µM) | 3.13 µg/mL (≈ 4.33 µM) | 0.78 µg/mL (≈ 1.08 µM) | 50 µg/mL (≈ 69.2 µM) | 25 µg/mL (≈ 34.6 µM) | 6.25 µg/mL (≈ 8.65 µM) | – | 25 µg/mL (≈ 34.6 µM) | 50 µg/mL (≈ 69.2 µM) | – | 25 µg/mL (≈ 34.6 µM) |
| CCN1CCN(C(=O)NC(C(=O)N[C@]2(OC)C(=O)N3C(C(=O)O)=C(CSc4nnnn4CCN(C)C)CS[C@@H]32)c2cccs2)C(=O)C1=O (stereo partly drawn) | 12.5 µg/mL (≈ 17.3 µM) | 6.25 µg/mL (≈ 8.65 µM) | ≤ 0.1 µg/mL | 0.39 µg/mL (≈ 0.54 µM) | 1.56 µg/mL (≈ 2.16 µM) | 0.78 µg/mL (≈ 1.08 µM) | 50 µg/mL (≈ 69.2 µM) | 12.5 µg/mL (≈ 17.3 µM) | 6.25 µg/mL (≈ 8.65 µM) | 25 µg/mL (≈ 34.6 µM) | 25 µg/mL (≈ 34.6 µM) | 50 µg/mL (≈ 69.2 µM) | 50 µg/mL (≈ 69.2 µM) | 25 µg/mL (≈ 34.6 µM) |
| CCN1CCN(C(=O)NC(C(=O)N[C@]2(OC)C(=O)N3C(C(=O)O)=C(CSc4nncs4)CS[C@@H]32)c2cccs2)C(=O)C1=O (stereo partly drawn) | 1.56 µg/mL (≈ 2.34 µM) | 12.5 µg/mL (≈ 18.7 µM) | ≤ 0.1 µg/mL | 0.78 µg/mL (≈ 1.17 µM) | 0.78 µg/mL (≈ 1.17 µM) | 0.39 µg/mL (≈ 0.584 µM) | 25 µg/mL (≈ 37.4 µM) | 12.5 µg/mL (≈ 18.7 µM) | 6.25 µg/mL (≈ 9.36 µM) | 25 µg/mL (≈ 37.4 µM) | 100 µg/mL (≈ 150 µM) | 25 µg/mL (≈ 37.4 µM) | 12.5 µg/mL (≈ 18.7 µM) | 100 µg/mL (≈ 150 µM) |
| C=Cn1nnnc1SCC1=C(C(=O)O)N2C(=O)[C@](NC(=O)C(NC(=O)N3CCN(CC)C(=O)C3=O)c3cccs3)(OC)[C@H]2SC1 (stereo partly drawn) | 6.25 µg/mL (≈ 9.22 µM) | 3.13 µg/mL (≈ 4.62 µM) | ≤ 0.1 µg/mL | 0.2 µg/mL (≈ 0.295 µM) | 0.78 µg/mL (≈ 1.15 µM) | 0.39 µg/mL (≈ 0.575 µM) | 25 µg/mL (≈ 36.9 µM) | 12.5 µg/mL (≈ 18.4 µM) | 3.13 µg/mL (≈ 4.62 µM) | 12.5 µg/mL (≈ 18.4 µM) | 25 µg/mL (≈ 36.9 µM) | 25 µg/mL (≈ 36.9 µM) | 12.5 µg/mL (≈ 18.4 µM) | 12.5 µg/mL (≈ 18.4 µM) |
| CCN1CCN(C(=O)NC(C(=O)N[C@]2(OC)C(=O)N3C(C(=O)O)=C(CSc4nnnn4CCN)CS[C@@H]32)c2cccs2)C(=O)C1=O (stereo partly drawn) | 3.13 µg/mL (≈ 4.51 µM) | 3.13 µg/mL (≈ 4.51 µM) | ≤ 0.1 µg/mL | 0.2 µg/mL (≈ 0.288 µM) | 0.78 µg/mL (≈ 1.12 µM) | 0.78 µg/mL (≈ 1.12 µM) | 12.5 µg/mL (≈ 18 µM) | 12.5 µg/mL (≈ 18 µM) | 6.25 µg/mL (≈ 9 µM) | 12.5 µg/mL (≈ 18 µM) | 50 µg/mL (≈ 72 µM) | 50 µg/mL (≈ 72 µM) | 6.25 µg/mL (≈ 9 µM) | 25 µg/mL (≈ 36 µM) |
| CCN1CCN(C(=O)NC(C(=O)N[C@]2(OC)C(=O)N3C(C(=O)O)=C(CSc4nnnn4CC(C)=NO)CS[C@@H]32)c2cccs2)C(=O)C1=O (stereo partly drawn) | 6.25 µg/mL (≈ 8.65 µM) | 6.25 µg/mL (≈ 8.65 µM) | ≤ 0.1 µg/mL | 0.2 µg/mL (≈ 0.277 µM) | 0.78 µg/mL (≈ 1.08 µM) | 0.78 µg/mL (≈ 1.08 µM) | 25 µg/mL (≈ 34.6 µM) | 12.5 µg/mL (≈ 17.3 µM) | 3.13 µg/mL (≈ 4.33 µM) | 12.5 µg/mL (≈ 17.3 µM) | 25 µg/mL (≈ 34.6 µM) | 50 µg/mL (≈ 69.2 µM) | 25 µg/mL (≈ 34.6 µM) | 50 µg/mL (≈ 69.2 µM) |
| CCN1CCN(C(=O)NC(C(=O)N[C@]2(OC)C(=O)N3C(C(=O)O)=C(CSc4nnnn4CC(C)=O)CS[C@@H]32)c2cccs2)C(=O)C1=O (stereo partly drawn) | 6.25 µg/mL (≈ 8.83 µM) | 6.25 µg/mL (≈ 8.83 µM) | ≤ 0.1 µg/mL | 0.2 µg/mL (≈ 0.283 µM) | 0.78 µg/mL (≈ 1.1 µM) | 0.39 µg/mL (≈ 0.551 µM) | 25 µg/mL (≈ 35.3 µM) | 25 µg/mL (≈ 35.3 µM) | 6.25 µg/mL (≈ 8.83 µM) | 25 µg/mL (≈ 35.3 µM) | 50 µg/mL (≈ 70.6 µM) | 50 µg/mL (≈ 70.6 µM) | 25 µg/mL (≈ 35.3 µM) | 25 µg/mL (≈ 35.3 µM) |
